Results on five compounds are retold here after patent publication US20190119348A1, “PARATHYROID HORMONE RECEPTOR 1 ANTAGONIST AND INVERSE AGONIST POLYPEPTIDES AND METHODS OF THEIR USE” (The General Hospital Corporation, priority 2016, published 2019).

Where two headings read alike, the source gives them in different places. Where a SMILES comes first, the peptide text is derived from it. [ ]: non-standard residue; d: D form. Nle = CCCC[C@H](N)C(=O)O

The target of this assay is T1, endogenous hPTHR1 (Homo sapiens, UniProt Q03431).
T1 construct: Saos-2, in which is endogenously expressed the hPTHR1; endogenous in cells
T1 sequence (Q03431 27-593): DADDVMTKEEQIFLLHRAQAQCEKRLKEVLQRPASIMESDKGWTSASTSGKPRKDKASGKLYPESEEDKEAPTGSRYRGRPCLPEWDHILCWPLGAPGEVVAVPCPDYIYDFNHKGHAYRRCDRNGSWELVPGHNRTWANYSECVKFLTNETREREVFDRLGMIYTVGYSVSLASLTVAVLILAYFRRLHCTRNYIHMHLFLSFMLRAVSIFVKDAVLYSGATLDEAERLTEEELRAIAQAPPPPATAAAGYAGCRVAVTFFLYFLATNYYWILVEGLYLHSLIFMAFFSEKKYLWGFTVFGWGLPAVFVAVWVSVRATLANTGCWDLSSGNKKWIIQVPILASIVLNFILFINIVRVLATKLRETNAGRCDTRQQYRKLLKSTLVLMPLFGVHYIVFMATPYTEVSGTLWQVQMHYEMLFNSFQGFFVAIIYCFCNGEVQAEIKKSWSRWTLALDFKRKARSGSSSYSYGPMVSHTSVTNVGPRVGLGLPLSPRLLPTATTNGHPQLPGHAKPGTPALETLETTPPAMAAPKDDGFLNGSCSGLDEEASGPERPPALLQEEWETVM
The assay can be described thus: Antagonism of PTH(1-34)- and PTHrP(1-36)-induced cAMP response (GloSensor) in SGS-72 cells. The assay is classed as cell-based. The procedure, abridged:
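SaOS2-derived SGS-72 cells, which express endogenous hPTHR1 and a stable GloSensor cAMP reporter, were loaded with 0.5 mM luciferin for 15 min at room temperature in CO2-independent medium with 0.1% BSA. Antagonist was tested against PTH(1-34) or PTHrP(1-36), with luminescence taken at the agonist-alone maximum; pIC50 came from four-parameter fits.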

[1] abbreviates: IC50 PTH(1-34) (Table 6, nanomolar value), antagonist pre-treatment 15 minutes, PTH(1-34) 0.3 nM.

With `CC[C@H](C)[C@H](N)C(=O)N[C@@H](CCC(N)=O)C(=O)N[C@@H](CC(C)C)C(=O)N[C@@H](CCSC)C(=O)N[C@@H](Cc1c[nH]cn1)C(=O)N[C@@H](CCC(N)=O)C(=O)N[C@@H](CCCNC(=N)N)C(=O)N[C@H](Cc1c[nH]c2ccccc12)C(=O)N[C@@H](CCCCN)C(=O)N[C@@H](Cc1c[nH]c2ccccc12)C(=O)N[C@H](C(=O)N[C@@H](CCC(N)=O)C(=O)N[C@@H](CC(=O)O)C(=O)N[C@@H](C)C(=O)N[C@@H](CCCNC(=N)N)C(=O)N[C@@H](CCCNC(=N)N)C(=O)N[C@@H](CCCNC(=N)N)C(=O)N[C@@H](C)C(=O)N[C@@H](Cc1c[nH]c2ccccc12)C(=O)N[C@@H](CC(C)C)C(=O)N[C@@H](Cc1c[nH]cn1)C(=O)N[C@@H](CCCCN)C(=O)N[C@@H](CC(C)C)C(=O)N[C@H](C(=O)N[C@@H](C)C(=O)N[C@@H](CCC(=O)O)C(=O)N[C@H](C(=O)N[C@@H](Cc1c[nH]cn1)C(=O)N[C@H](C(=O)N[C@@H](C)C(=O)N[C@@H](CCC(=O)O)C(=O)N[C@H](C(N)=O)[C@@H](C)CC)[C@@H](C)O)[C@@H](C)CC)[C@@H](C)CC)[C@@H](C)CC` [compound 1949, dW12, W23-LA-PTH(5-36)] (H-IQLMHQR[dW]KWIQDARRRAWLHKLIAEIHTAEI-NH2; N-terminus assumed), the IC50 is 1.45 nM under setting [1]; 1 nM (antagonist pre-treatment 10 minutes, PTHrP(1-36) 0.3 nM, seven experiments, read-out: corresponding nanomolar value vs. PTHrP(1-36) (Table 5)); 0.794 nM (antagonist pre-treatment 10 minutes, PTHrP(1-36) 0.3 nM, seven experiments, read-out: pIC50 vs. PTHrP(1-36) (Table 5) (converted)); 1.21 nM (antagonist pre-treatment 15 minutes, PTHrP(1-36) 0.3 nM, read-out: IC50 PTHrP(1-36) (Table 6, nanomolar value)); 1 nM (corresponding nanomolar value vs. PTH(1-34) (Table 5), antagonist pre-treatment 10 minutes, PTH(1-34) 0.3 nM, seven experiments); 0.776 nM (pIC50 vs. PTH(1-34) (Table 5), antagonist pre-treatment 10 minutes, PTH(1-34) 0.3 nM, seven experiments).

Regarding `CC[C@H](C)[C@H](NC(=O)[C@H](CCC(=O)O)NC(=O)[C@H](C)NC(=O)[C@@H](NC(=O)[C@H](Cc1c[nH]cn1)NC(=O)[C@@H](NC(=O)[C@H](CCC(=O)O)NC(=O)[C@H](C)NC(=O)[C@@H](NC(=O)[C@H](CC(C)C)NC(=O)[C@H](CCCCN)NC(=O)[C@H](Cc1c[nH]cn1)NC(=O)[C@H](CC(C)C)NC(=O)[C@H](Cc1c[nH]c2ccccc12)NC(=O)[C@H](C)NC(=O)[C@H](CCCNC(=N)N)NC(=O)[C@H](CCCNC(=N)N)NC(=O)[C@H](CCCNC(=N)N)NC(=O)[C@H](C)NC(=O)[C@H](CC(=O)O)NC(=O)[C@H](CCC(N)=O)NC(=O)[C@@H](NC(=O)[C@H](Cc1c[nH]c2ccccc12)NC(=O)[C@H](CCCCN)NC(=O)[C@@H](Cc1c[nH]c2ccccc12)NC(=O)[C@H](CCCNC(=N)N)NC(=O)[C@H](CCC(N)=O)NC(=O)[C@H](Cc1c[nH]cn1)NC(=O)[C@H](CCSC)NC(=O)[C@@H](N)CC(C)C)[C@@H](C)CC)[C@@H](C)CC)[C@@H](C)CC)[C@@H](C)O)C(N)=O` [compound 1990, dW12, W23-LA-PTH(7-36)-1990] (H-LMHQR[dW]KWIQDARRRAWLHKLIAEIHTAEI-NH2; N-terminus assumed), the IC50 under setting [1] was found to be 1.23 nM.

In the case of `CCCC[C@H](NC(=O)[C@@H](N)CC(C)C)C(=O)N[C@@H](Cc1c[nH]cn1)C(=O)N[C@@H](CCC(N)=O)C(=O)N[C@@H](CCCNC(=N)N)C(=O)N[C@H](Cc1c[nH]c2ccccc12)C(=O)N[C@@H](CCCCN)C(=O)N[C@@H](Cc1c[nH]c2ccccc12)C(=O)N[C@H](C(=O)N[C@@H](CCC(N)=O)C(=O)N[C@@H](CC(=O)O)C(=O)N[C@@H](C)C(=O)N[C@@H](CCCNC(=N)N)C(=O)N[C@@H](CCCNC(=N)N)C(=O)N[C@@H](CCCNC(=N)N)C(=O)N[C@@H](C)C(=O)N[C@@H](Cc1c[nH]c2ccccc12)C(=O)N[C@@H](CC(C)C)C(=O)N[C@@H](Cc1c[nH]cn1)C(=O)N[C@@H](CCCCN)C(=O)N[C@@H](CC(C)C)C(=O)N[C@H](C(=O)N[C@@H](C)C(=O)N[C@@H](CCC(=O)O)C(=O)N[C@H](C(=O)N[C@@H](Cc1c[nH]cn1)C(=O)N[C@H](C(=O)N[C@@H](C)C(=O)N[C@@H](CCC(=O)O)C(=O)N[C@H](C(N)=O)[C@@H](C)CC)[C@@H](C)O)[C@@H](C)CC)[C@@H](C)CC)[C@@H](C)CC` [compound 1992, Nle8, dW12, W23-LA-PTH(7-36)-1992] (H-L[Nle]HQR[dW]KWIQDARRRAWLHKLIAEIHTAEI-NH2; N-terminus assumed), the IC50 under setting [1] was 1.55 nM.

Turning to `CCCC[C@H](NC(=O)[C@@H](N)CC(C)C)C(=O)N[C@@H](Cc1c[nH]cn1)C(=O)N[C@@H](CCC(N)=O)C(=O)N[C@@H](CC(C)C)C(=O)N[C@H](Cc1c[nH]c2ccccc12)C(=O)N[C@@H](CCCCN)C(=O)N[C@@H](Cc1c[nH]c2ccccc12)C(=O)N[C@H](C(=O)N[C@@H](CCC(N)=O)C(=O)N[C@@H](CC(=O)O)C(=O)N[C@@H](C)C(=O)N[C@@H](CCCNC(=N)N)C(=O)N[C@@H](CCCNC(=N)N)C(=O)N[C@@H](CCCNC(=N)N)C(=O)N[C@@H](C)C(=O)N[C@@H](Cc1c[nH]c2ccccc12)C(=O)N[C@@H](CC(C)C)C(=O)N[C@@H](Cc1c[nH]cn1)C(=O)N[C@@H](CCCCN)C(=O)N[C@@H](CC(C)C)C(=O)N[C@H](C(=O)N[C@@H](C)C(=O)N[C@@H](CCC(=O)O)C(=O)N[C@H](C(=O)N[C@@H](Cc1c[nH]cn1)C(=O)N[C@H](C(=O)N[C@@H](C)C(=O)N[C@@H](CCC(=O)O)C(=O)N[C@H](C(N)=O)[C@@H](C)CC)[C@@H](C)O)[C@@H](C)CC)[C@@H](C)CC)[C@@H](C)CC` [compound 1997, Nle8,L11, dW12, W23-LA-PTH(7-36)-1997] (H-L[Nle]HQL[dW]KWIQDARRRAWLHKLIAEIHTAEI-NH2; N-terminus assumed), the IC50 under setting [1] worked out at 2.1 nM.

Take `CCCC[C@H](NC(=O)[C@H](CC(C)C)NC(=O)[C@H](CCC(N)=O)NC(=O)[C@@H](N)[C@@H](C)CC)C(=O)N[C@@H](Cc1c[nH]cn1)C(=O)N[C@@H](CCC(N)=O)C(=O)N[C@@H](CC(C)C)C(=O)N[C@H](Cc1c[nH]c2ccccc12)C(=O)N[C@@H](CCCCN)C(=O)N[C@@H](Cc1c[nH]c2ccccc12)C(=O)N[C@H](C(=O)N[C@@H](CCC(N)=O)C(=O)N[C@@H](CC(=O)O)C(=O)N[C@@H](C)C(=O)N[C@@H](CCCNC(=N)N)C(=O)N[C@@H](CCCNC(=N)N)C(=O)N[C@@H](CCCNC(=N)N)C(=O)N[C@@H](C)C(=O)N[C@@H](Cc1c[nH]c2ccccc12)C(=O)N[C@@H](CC(C)C)C(=O)N[C@@H](Cc1c[nH]cn1)C(=O)N[C@@H](CCCCN)C(=O)N[C@@H](CC(C)C)C(=O)N[C@H](C(=O)N[C@@H](C)C(=O)N[C@@H](CCC(=O)O)C(=O)N[C@H](C(=O)N[C@@H](Cc1c[nH]cn1)C(=O)N[C@H](C(=O)N[C@@H](C)C(=O)N[C@@H](CCC(=O)O)C(=O)N[C@H](C(N)=O)[C@@H](C)CC)[C@@H](C)O)[C@@H](C)CC)[C@@H](C)CC)[C@@H](C)CC` [compound 1999, Nle8, L11, dW12, W23-LA-PTH(5-36)-1999] (H-IQL[Nle]HQL[dW]KWIQDARRRAWLHKLIAEIHTAEI-NH2; N-terminus assumed): the IC50 under setting [1] worked out at 2.75 nM.
